# Like-named read-outs stand apart in the source and are kept apart here.
# Assays:
# [1] = test system: sugarcane borer larvae; assay: Laboratory leaf dip test on sugarcane borer larvae; type: in vivo; conditions: Diatraea saccharalis, foliar, Btk 0.54 ppm, chlorantraniliprole 0.0009 ppm, read-out: % Efficacy
# Protocol: (§1) DiPel® DF was used as the source of Bacillus thuringiensis subsp. kurstaki and Coragen® was used as the source of chlorantraniliprole. The present invention is not limited to the products or formulation types used herein. In each example below, the studies were conducted as follows.
# (§2) For these tests, standardized laboratory leaf dip methods were used to inoculate plant material with treatment(s). Dry, treated leaves were placed into Petri dishes (100×25 mm) containing filter paper wetted with 500 μl of distilled H2O (“dH2O”). Each dish was then infested with between 5 and 10 larvae, dependent on species. Efficacy ratings were taken at specified intervals. Synergy ratings were calculated for each test.
# (§3) % Cexp=A+B−(AB/100), where % Cexp is the expected efficacy and “in which A and B are the control levels given by the single [insecticides]. If the ratio between the experimentally observed efficacy of the mixture Cobs and the expected efficacy of the mixture is greater than 1, synergistic interactions are present in the mixture.” (Gisi, Synergisitic Interaction of Fungicides in Mixtures, The American Phytopathological Society, 86:11, 1273-1279,1996). Adopting a conservative approach, Applicant determined synergy to be present at ratios of >1.15.
# [2] = test system: beet armyworm larvae; assay: Laboratory leaf dip test on beet armyworm larvae; type: in vivo; conditions: Spodoptera exigua, foliar, Btk 0.54 ppm, chlorantraniliprole 0.0009 ppm, read-out: % Efficacy
# Protocol: as §1, §2, §3
# [3] = test system: corn earworm larvae; assay: Laboratory leaf dip test on corn earworm larvae; type: in vivo; conditions: Helicoverpa zea, foliar, Btk 0.54 ppm, chlorantraniliprole 0.0009 ppm, read-out: % Efficacy
# Protocol: as §1, §2, §3
# [4] = test system: soybean looper larvae; assay: Laboratory leaf dip test on soybean looper larvae; type: in vivo, Chrysodeixis includens; conditions: foliar, Btk 0.54 ppm, chlorantraniliprole 0.045 μg/ml, read-out: % Efficacy
# Protocol: as §1, §2, §3
# In this study, the response of soybean looper larvae to Bacillus thuringiensis subsp. kurstaki and chlorantraniliprole was observed.
# For this species, the same ppm of Bacillus thuringiensis subsp. kurstaki was used, but 0.045 μg/ml was used for chlorantraniliprole.
# [5] = test system: cabbage looper larvae; assay: Laboratory leaf dip test on cabbage looper larvae; type: in vivo; conditions: Trichoplusia ni, foliar, Btk 0.54 ppm, chlorantraniliprole 0.0009 ppm, read-out: % Efficacy
# Protocol: as §1, §2, §3
# [6] = test system: southwestern corn borer larvae; assay: Laboratory leaf dip test on southwestern corn borer larvae; type: in vivo; conditions: foliar, 72 h after treatment, Btk 0.54 ppm, chlorantraniliprole 0.0009 ppm, read-out: % Efficacy
# Protocol: as §1, §2, §3
# [7] = test system: diamondback moth larvae; assay: Laboratory leaf dip test on diamondback moth larvae; type: in vivo; conditions: Plutella xylostella, foliar, 24 h after treatment, Btk 0.54 ppm, chlorantraniliprole 0.0009 ppm, read-out: % Efficacy
# Protocol: as §1, with “The following examples illustrate the synergy of Bacillus thuringiensis subsp. kurstaki and chlorantraniliprole when controlling diamondback moth, beet armyworm, sugarcane borer, soybean looper, and corn earworm. DiPel®” for “DiPel®”
# For these tests, standardized laboratory leaf dip methods were used to inoculate plant material with treatment(s). Dry, treated leaves were placed into Petri dishes (100×25 mm) containing filter paper wetted with 500 μl of distilled H2O (“dH2O”). […] Synergy ratings were calculated for each test. […]
# % Cexp=A+B−(AB/100), where % Cexp is the expected efficacy and “in which A and B are the control levels given by the single [insecticides]. […] Adopting a conservative approach, Applicant determined synergy to be present at ratios of >1.15. […]
# In order to determine synergy, rates below normal field rate ranges must be used. If normal field rate ranges are used, all of the larvae would die (combining a lethal or near lethal dose of Bacillus thuringiensis subsp. kurstaki with a lethal dose of chlorantraniliprole would most likely lead to larvae death) in every treatment and synergy would not be able to be determined. […]
smiles,measurement,setting,value
CNC(=O)c1cc(Cl)cc(C)c1NC(=O)c1cc(Br)nn1-c1ncccc1Cl [Chlorantraniliprole],Emax at 0.0009 ppm,[1]; 24 h after treatment,10%
same,Emax at 0.0009 ppm,[1]; 48 h after treatment,10%
same,Emax at 0.0009 ppm,[1]; 72 h after treatment,19%
same,Emax at 0.0009 ppm,[2]; 24 h after treatment,7%
same,Emax at 0.0009 ppm,[2]; 48 h after treatment,17%
same,Emax at 0.0009 ppm,[2]; 72 h after treatment,30%
same,Emax at 0.0009 ppm,[3]; 24 h after treatment,7%
same,Emax at 0.0009 ppm,[3]; 48 h after treatment,20%
same,Emax at 0.0009 ppm,[3]; 72 h after treatment,20%
same,Emax at 0.045 µg/mL,[4]; 24 h after treatment,7%
same,Emax at 0.045 µg/mL,[4]; 48 h after treatment,10%
same,Emax at 0.045 µg/mL,[4]; 72 h after treatment,17%
same,Emax at 0.0009 ppm,[5]; 24 h after treatment,46%
same,Emax at 0.0009 ppm,[5]; 48 h after treatment,46%
same,Emax at 0.0009 ppm,[6],31%
same,Emax at 0.0009 ppm,[7],12%
